Reference: patent US11608335B2, “Somatostatin modulators and uses thereof” (CRINETICS PHARMACEUTICALS, INC., priority 2018, dated 2023)
Read-outs that look alike come from different tables or passages of the source.

Key:
[1] = Liver microsomal stability assay; format: in vitro ADME; settings: both sexes, human, pooled human liver microsomes; read-out: HLM Stability t½
Procedure: Example B-2: Liver Microsomal Stability Assay Protocol
The in vitro stabilities of compounds of interest were determined for various species using pooled male and female human, pooled male Sprague-Dawley rat, pooled male Cynomolgus monkey, and pooled male Beagle dog liver microsomes at microsomal protein concentrations of 0.5 mg/mL. Incubations were carried out in a potassium phosphate buffer (50 mM). The NADPH-generating system was composed of NADP+ (1 mM), magnesium chloride (3 mM), EDTA (1 mM), glucose-6-phosphate (5 mM) and glucose-6-phosphate dehydrogenase (1 Unit/mL) for all experiments. Compounds of interest in DMSO/acetonitrile were added to achieve a final incubation concentration of 1 μM (final DMSO content was 0.1% v/v and final acetonitrile content was 0.9%). The final incubation volume was 400 μL. Incubations were conducted at 37° C. for 0, 5, 10, 20, 40 and 60 minutes in a shaking water bath and terminated by removing 50 μL of incubation mixture and adding to 100 μL of ice cold acetonitrile containing internal standard. Following precipitation by centrifugation at 3500 rpm and 4° C. for 30 minutes, compounds of interest and internal standard were analyzed in the resultant supernatant using a multiple reaction monitoring (MRM) LC-MS/MS method. MS conditions were optimized for each analyte.
(§1) Table E illustrates representative human liver microsomal stability and time dependent CYP2D6 inhibition (TDI) of exemplary compounds.

[2] = target: T1, human somatostatin receptor subtype 2 (Homo sapiens, UniProt P30874); test: cAMP assay for SST2R (inhibition of cAMP via human SST2 receptor); format: cell-based; settings: Table B, read-out: SST2 potency
T1 construct: expressed in transfected cells
From the text: cAMP Assay Protocol for SST2R:

[3] = target: T2, human somatostatin receptor subtype 3 (Homo sapiens, UniProt P32745); test: cAMP assay for SST3R (inhibition of cAMP via human SST3 receptor); format: cell-based; settings: from inhibition of cAMP via human SST5 receptor and human SST3 receptor
T2 construct: expressed in transfected cells
From the text: cAMP Assay Protocol for SST3R:

[4] = target: T3, Cytochrome P450 (CYP) 2D6 enzyme (Homo sapiens, UniProt P10635); test: Cytochrome P450 (CYP) 2D6 enzyme time dependent inhibition (TDI) assay; format: in vitro ADME; settings: human liver microsomes
T3 construct: using pooled male and female human liver microsomes; from tissue; host or cells: pooled male and female human liver microsomes
Procedure: Example B-3: Cytochrome P450 (CYP) 2D6 Enzyme Time Dependent Inhibition (TDI) Assay Protocol
The NADPH-generating system mix was composed of potassium phosphate buffer pH 7.4 (50 mM), NADP+ (1 mM), magnesium chloride (3 mM), EDTA (1 mM), glucose-6-phosphate (5 mM), glucose-6-phosphate dehydrogenase (1 Unit/mL), human liver microsomes (0.1 mg/mL) and water. Compounds of interest in DMSO serial diluted to six different concentrations (final DMSO content of 0.1% v/v) were added to the NADPH-generating system. CYP 2D6 substrate Dextromethorphan was added at a final incubation concentration of 5 μM. The final incubation volume was 200 μL. Incubations were conducted at 37° C. for 10 minutes in a shaking water bath to evaluate the drug candidates as […] of CYP 2D6. In a separate test plate, drug candidates were pre-incubated at 37° C. for 30 minutes in a shaking water bath in NADPH-generating system mix in the absence of Dextromethorphan substrate to allow for the formation of metabolites. This plate was removed from the water bath and placed on ice for 5 minutes. Dextromethorphan substrate was then added and the plate was incubated at 37° C. for 10 minutes in a shaking water bath to determine if any metabolites formed during the 30 minute pre-incubation inhibit the CYP 2D6 enzyme. All incubations were terminated by removing 50 μL of incubation mixture and adding to 200 μL of ice cold acetonitrile containing internal standard. Following precipitation by centrifugation at 3500 rpm and 4° C. for 30 minutes, the resultant supernatant were analyzed by using a multiple reaction monitoring (MRM) LC-MS/MS method detecting for internal standard and the CYP 2D6 enzyme mediated Dextromethorphan O-demethylation metabolite Dextrorphan and IC50 values were determined.
as §1

[5] = target: human somatostatin receptor subtype 5 (Homo sapiens, UniProt P35346); test: cAMP assay for SST5R (inhibition of cAMP via human SST5 receptor); settings: for Fold selectivity for SST5 vs SST2: SST5 over SST2, class symbols
[6] = target: T4, human somatostatin receptor subtype 4 (Homo sapiens, UniProt P31391); test: cAMP assay for hSST4R (inhibition of cAMP via human SST4 receptor); format: cell-based; settings: from inhibition of cAMP via human SST5 receptor and human SST4 receptor
T4 construct: expressed in transfected cells
From the text: cAMP Assay Protocol hSST4R:

[7] = t = 0 min pre-incubation, read-out: CYP2D6 inhibition, IC50 (μM) t = 0 min
[8] = t = 30 min pre-incubation, read-out: CYP2D6 inhibition, IC50 (μM) t = 30 min
[9] = read-out: SST5 potency, inhibition of cAMP via human SST5 receptor, Table B

T3 sequence (P10635 whole entry): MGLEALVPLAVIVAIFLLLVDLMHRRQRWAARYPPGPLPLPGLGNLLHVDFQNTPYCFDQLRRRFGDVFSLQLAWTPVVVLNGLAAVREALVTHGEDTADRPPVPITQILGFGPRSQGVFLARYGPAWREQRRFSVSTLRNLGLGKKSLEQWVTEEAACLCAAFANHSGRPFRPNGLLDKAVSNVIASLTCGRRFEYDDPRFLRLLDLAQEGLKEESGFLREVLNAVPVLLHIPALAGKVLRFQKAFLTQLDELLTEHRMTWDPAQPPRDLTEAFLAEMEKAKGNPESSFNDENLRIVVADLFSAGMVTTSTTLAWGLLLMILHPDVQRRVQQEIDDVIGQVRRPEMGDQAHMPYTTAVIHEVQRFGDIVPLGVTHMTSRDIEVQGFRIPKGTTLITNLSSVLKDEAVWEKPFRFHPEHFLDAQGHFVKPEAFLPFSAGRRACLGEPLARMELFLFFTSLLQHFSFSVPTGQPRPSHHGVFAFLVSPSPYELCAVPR
Sequence of human somatostatin receptor subtype 5 (P35346 whole entry): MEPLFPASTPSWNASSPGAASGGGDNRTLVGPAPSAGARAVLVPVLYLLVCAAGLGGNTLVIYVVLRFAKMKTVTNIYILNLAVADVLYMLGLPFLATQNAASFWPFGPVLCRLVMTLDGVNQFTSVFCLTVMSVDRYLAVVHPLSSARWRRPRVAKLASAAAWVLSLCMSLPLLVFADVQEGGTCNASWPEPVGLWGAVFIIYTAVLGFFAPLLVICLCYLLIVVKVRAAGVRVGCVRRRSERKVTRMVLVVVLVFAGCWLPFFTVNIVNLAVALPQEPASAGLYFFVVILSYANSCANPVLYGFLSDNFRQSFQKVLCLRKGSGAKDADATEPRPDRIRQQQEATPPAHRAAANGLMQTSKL
T2 sequence (P32745 whole entry): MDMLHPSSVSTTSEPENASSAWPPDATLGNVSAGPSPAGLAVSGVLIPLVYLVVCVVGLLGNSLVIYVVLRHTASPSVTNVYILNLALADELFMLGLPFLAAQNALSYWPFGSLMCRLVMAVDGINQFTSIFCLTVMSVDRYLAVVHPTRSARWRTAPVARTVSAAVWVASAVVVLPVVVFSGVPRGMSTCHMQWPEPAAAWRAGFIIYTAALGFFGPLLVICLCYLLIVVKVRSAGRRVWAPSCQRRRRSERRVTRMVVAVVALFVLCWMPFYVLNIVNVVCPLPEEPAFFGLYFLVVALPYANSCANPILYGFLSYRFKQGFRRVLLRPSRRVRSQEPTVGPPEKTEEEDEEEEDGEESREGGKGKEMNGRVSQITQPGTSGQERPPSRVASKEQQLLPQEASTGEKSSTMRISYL
T1 sequence (P30874 whole entry): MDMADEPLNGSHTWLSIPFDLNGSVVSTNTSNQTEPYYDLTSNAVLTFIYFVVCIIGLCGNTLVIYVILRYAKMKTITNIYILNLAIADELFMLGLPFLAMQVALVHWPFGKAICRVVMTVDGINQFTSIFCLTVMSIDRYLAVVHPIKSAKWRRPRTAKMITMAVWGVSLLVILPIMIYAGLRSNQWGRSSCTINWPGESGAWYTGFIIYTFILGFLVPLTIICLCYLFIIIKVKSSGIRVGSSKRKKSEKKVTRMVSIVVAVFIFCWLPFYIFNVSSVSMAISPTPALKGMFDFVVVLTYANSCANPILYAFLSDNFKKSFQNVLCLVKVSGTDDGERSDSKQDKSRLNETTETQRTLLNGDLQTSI
T4 sequence (P31391 whole entry): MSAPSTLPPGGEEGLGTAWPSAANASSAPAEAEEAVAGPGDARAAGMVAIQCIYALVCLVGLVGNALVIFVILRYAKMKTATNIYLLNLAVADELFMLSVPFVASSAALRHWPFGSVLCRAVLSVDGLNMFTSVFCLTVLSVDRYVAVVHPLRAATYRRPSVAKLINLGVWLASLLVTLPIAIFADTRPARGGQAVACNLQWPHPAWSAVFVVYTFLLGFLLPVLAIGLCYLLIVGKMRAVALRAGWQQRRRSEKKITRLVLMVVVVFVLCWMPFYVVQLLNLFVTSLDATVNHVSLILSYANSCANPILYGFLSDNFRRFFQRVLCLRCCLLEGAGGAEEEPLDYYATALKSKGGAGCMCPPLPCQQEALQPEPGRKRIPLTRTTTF

Row | SMILES | half-life at 1 μM [1] [min] | EC50 [2] [nM] | Fold selectivity for SST5 vs SST3 [3] [fold] | IC50 [4, 7] [µM] | IC50 [4, 8] [µM] | EC50 [5] [nM] | Fold selectivity for SST5 vs SST2 [5] | EC50 [5, 9] [nM] | Fold selectivity for SST5 vs SST4 [6] [fold]
1 | Cc1cc(-c2cncc(-c3nc4c(F)cccc4[nH]3)c2N2CC[C@](C)(N)C2)ccn1 [Compound 2-178, (3S)-1-[5-(4-fluoro-1H-1,3-benzodiazol-2-yl)-2′-methyl-[3,4′-bipyridin]-4-yl]-3-methylpyrrolidin-3-amine] | 231 | > 1000 | 147 | > 10 | 9.7 | < 10 | ++ (++=100 to 499) | < 10 | 
2 | Cc1ccnc2[nH]c(-c3cncc(-c4ccc(F)c(C#N)c4)c3N3CC[C@](C)(N)C3)nc12 [Compound 2-154, 5-{4-[(3S)-3-amino-3-methylpyrrolidin-1-yl]-5-{7-methyl-1H-imidazo[4,5-b]pyridin-2-yl}pyridin-3-yl}-2-fluorobenzonitrile] | > 693 | 10 to 100 | 118 | > 10 | > 10 | < 10 | ++ (++=100 to 499) | < 10 | 
3 | COc1cc(-c2cncc(-c3nc4c(F)cccc4[nH]3)c2N2CC[C@](C)(N)C2)ccn1 [Compound 2-187, (3S)-1-[5-(4-fluoro-1H-1,3-benzodiazol-2-yl)-2′-methoxy-[3,4′-bipyridin]-4-yl]-3-methylpyrrolidin-3-amine] | 41 | 100 to 1000 | 93 | > 10 | 2.9 | < 10 | ++ (++=100 to 499) | < 10 | 
4 | Cc1ccnc2nc(-c3cncc(-c4ccc(F)c(F)c4)c3N3CC[C@](C)(N)C3)[nH]c12 [Compound 2-190, (3S)-1-[3-(3,4-difluorophenyl)-5-{7-methyl-1H-imidazo[4,5-b]pyridin-2-yl}pyridin-4-yl]-3-methylpyrrolidin-3-amine] | 139 | 10 to 100 | 16 | > 10 | > 10 | < 10 | + (+=10 to 99) | < 10 | 
5 | Cc1ccc(F)c2nc(-c3cncc(-c4cccc(C#N)c4)c3N3CC[C@H](N)C3)[nH]c12 [Compound 2-101, 3-{4-[(3S)-3-aminopyrrolidin-1-yl]-5-(7-fluoro-4-methyl-1H-1,3-benzodiazol-2-yl)pyridin-3-yl}benzonitrile] |  | 100 to 1000 | 42 |  |  | < 10 | +++ (+++=≥500) | < 10 | 11
6 | Cc1ccnc2nc(-c3cncc(-c4ccc(F)c(C(F)(F)F)c4)c3N3CC[C@](C)(N)C3)[nH]c12 [Compound 2-191, (3S)-1-{3-[4-fluoro-3-(trifluoromethyl)phenyl]-5-{7-methyl-1H-imidazo[4,5-b]pyridin-2-yl}pyridin-4-yl}-3-methylpyrrolidin-3-amine] | 139 | 100 to 1000 | 24 | 5.7 | 5.1 | < 10 | +++ (+++=≥500) | < 10 | 
7 | CCC(N)C1CN(c2c(-c3cc(C)cc(F)c3)cncc2-c2nc3cc(F)cc(F)c3[nH]2)C1 (stereo not shown) [Compound 1-51, 1-{1-[3-(4,6-difluoro-1H-1,3-benzodiazol-2-yl)-5-(3-fluoro-5-methylphenyl)pyridin-4-yl]azetidin-3-y}propan-1-amine] |  | > 1000 | 200 |  |  | < 10 | +++ (+++=≥500) | < 10 | 812
8 | Cc1ccc(F)c2[nH]c(-c3cncc(-c4cc(F)cc(C#N)c4)c3N3CC[C@H](N)C3)nc12 [Compound 2-63, 3-{4-[(3S)-3-aminopyrrolidin-1-yl]-5-(7-fluoro-4-methyl-1H-1,3-benzodiazol-2-yl)pyridin-3-yl}-5-fluorobenzonitrile] |  | 100 to 1000 | 43 |  |  | < 10 | +++ (+++=≥500) | < 10 | 18
9 | C[C@]1(N)CCN(c2c(-c3cccc(C#N)c3)cncc2-c2nc3c(F)cccc3[nH]2)C1 [Compound 2-200, 3-{4-[(3S)-3-amino-3-methylpyrrolidin-1-yl]-5-(4-fluoro-1H-1,3-benzodiazol-2-yl)pyridin-3-yl}benzonitrile] |  | 100 to 1000 | 159 |  |  | < 10 | +++ (+++=≥500) | < 10 | 136
10 | Cc1cc(-c2cncc(-c3nc4nccc(C)c4[nH]3)c2N2CC[C@](C)(N)C2)ccc1F [Compound 2-188, (3S)-1-[3-(4-fluoro-3-methylphenyl)-5-{7-methyl-1H-imidazo[4,5-b]pyridin-2-yl}pyridin-4-yl]-3-methylpyrrolidin-3-amine] | 33 | 100 to 1000 | 16 | > 10 | 8.7 | < 10 | ++ (++=100 to 499) | < 10 | 
11 | Cc1cccc2[nH]c(-c3cncc(-c4cc(F)cc(C#N)c4)c3N3CC[C@H](N)C3)nc12 [Compound 2-34, 3-{4-[(3S)-3-aminopyrrolidin-1-yl]-5-(4-methyl-1H-1,3-benzodiazol-2-yl)pyridin-3-yl}-5-fluorobenzonitrile] | > 693 |  |  | > 10 | > 10 |  |  |  | 
12 | Cc1ccnc2nc(-c3cncc(-c4ccc(F)c(Cl)c4)c3N3CC[C@](C)(N)C3)[nH]c12 [Compound 2-192, (3S)-1-[3-(3-chloro-4-fluorophenyl)-5-{7-methyl-1H-imidazo[4,5-b]pyridin-2-yl}pyridin-4-yl]-3-methylpyrrolidin-3-amine] | 99 | 10 to 100 | 18 | 4.2 | 4.7 | < 10 | ++ (++=100 to 499) | < 10 | 
13 | COc1cc(-c2cncc(-c3nc4nccc(C)c4[nH]3)c2N2CC[C@](C)(N)C2)ccc1F [Compound 2-189, (3S)-1-[3-(4-fluoro-3-methoxyphenyl)-5-{7-methyl-1H-imidazo[4,5-b]pyridin-2-yl}pyridin-4-yl]-3-methylpyrrolidin-3-amine] | > 693 | 10 to 100 | 27 | > 10 | > 10 | < 10 | ++ (++=100 to 499) | < 10 | 
